Biological target: T1, human LMPTP-A (Homo sapiens, UniProt P24666)
T1 sequence (P24666 1-158): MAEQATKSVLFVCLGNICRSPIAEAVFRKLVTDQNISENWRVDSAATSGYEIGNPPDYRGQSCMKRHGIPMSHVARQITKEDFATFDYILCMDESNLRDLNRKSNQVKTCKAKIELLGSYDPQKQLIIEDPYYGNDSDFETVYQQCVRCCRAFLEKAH
Experiment: Enzyme Assay of Inhibition of LMPTP-A (phosphatase assay, OMFP or pNPP substrate)
Type: biochemical
Settings: Bis-Tris pH 6.0, 37° C.
Protocol: Phosphatase assays were performed in buffer containing 50 mM Bis-Tris, pH 6.0, 1 mM DTT and 0.01% Triton X-100 at 37° C. For assays conducted with 3-O-methylfluorescein phosphate (OMFP) as substrate, fluorescence was monitored continuously at λex=485 and λem=525 nm. For assays conducted with para-nitrophenylphosphate (pNPP) as substrate, the reaction was stopped by addition of 2× reaction volume of 1 M NaOH, and absorbance was measured at 405 nm. IC50 values of compounds of Formula (I), (II), (III), or (IV) were determined from plots of inhibitor concentration versus percentage of enzyme activity. For inhibitor selectivity assays, each PTP was incubated with either 0.4 mM OMFP or 5 mM pNPP in the presence of 40 μM compound or DMSO. […] For the inhibitor reversibility assay, 50 nM human LMPTP-A was pre-incubated with 10 μM of compound of Formula (I), (II), (III), or (IV) or DMSO for 5 min. The enzyme was diluted 100× in phosphatase assay buffer containing 0.4 mM OMFP and fluorescence was measured at the indicated time points.

Compound	IC50
CCN(CC)C(=O)c1ccc(-c2cc(NCCCN3CCCCC3)c3cnccc3n2)c(C#N)c1 [3-cyano-N,N-diethyl-4-(4-((3-(piperidin-1-yl)propyl)amino)-1,6-naphthyridin-2-yl)benzamide]	1 to 20 µM
CN1CCC(NC(=O)c2ccc(-c3cc(NCCCN4CCCCC4)c4cnccc4n3)c(C#N)c2)CC1 [3-cyano-N-(1-methylpiperidin-4-yl)-4-(4-((3-(piperidin-1-yl)propyl)amino)-1,6-naphthyridin-2-yl)benzamide]	1 to 20 µM
CCN(CC)C(=O)c1ccc(-c2cc(Nc3ccc(CN(C)C)cc3)c3cnccc3n2)cc1 [4-(4-(4-((Dimethylamino)methyl)phenylamino)-1,6-naphthyridin-2-yl)-N,N-diethylbenzamide]	1 to 20 µM
CCN(CC)C(=O)c1ccc(-c2cc(Nc3ccc(N(C)C)cc3)c3cnccc3n2)cc1 [4-(4-(4-(Dimethylamino)phenylamino)-1,6-naphthyridin-2-yl)-N,N-diethylbenzamide]	1 to 20 µM
CN1CCC(Nc2cc(-c3ccc(C(=O)NCCCN4CCCCC4)cc3)nc3ccncc23)C1 (stereo not drawn) [4-(4-((1-Methylpyrrolidin-3-yl)amino)-1,6-naphthyridin-2-yl)-N-(3-(piperidin-1-yl)propyl)benzamide]	1 to 20 µM
CCN(CC)C(=O)c1ccc(-c2cc(NCCN3CCS(=O)(=O)CC3)c3cnccc3n2)cc1 [4-(4-((2-(1,1-Dioxidothiomorpholino)ethyl)amino)-1,6-naphthyridin-2-yl)-N,N-diethylbenzamide]	1 to 20 µM
CCN(CC)C(=O)c1ccc(-c2cc(NCCN(C)C)c3cnccc3n2)cc1 [4-(4-((2-(Dimethylamino)ethyl)amino)-1,6-naphthyridin-2-yl)-N,N-diethylbenzamide]	1 to 20 µM
CCN(CC)C(=O)c1ccc(-c2cc(NCCCN3CCS(=O)(=O)CC3)c3cnccc3n2)cc1 [4-(4-((3-(1,1-Dioxidothiomorpholino)propyl)amino)-1,6-naphthyridin-2-yl)-N,N-diethylbenzamide]	1 to 20 µM
O=C(NCCc1ccncc1)c1ccc(-c2cc(NCCCN3CCCCC3)c3cnccc3n2)cc1 [4-(4-((3-(piperidin-1-yl)propyl)amino)-1,6-naphthyridin-2-yl)-N-(2-(pyridin-4-yl)ethyl)benzamide]	≤ 1 µM
O=C(NC1CCNCC1)c1ccc(-c2cc(NCCCN3CCCCC3)c3cnccc3n2)c(C(F)(F)F)c1 [4-(4-((3-(piperidin-1-yl)propyl)amino)-1,6-naphthyridin-2-yl)-N-(piperidin-4-yl)-3-(trifluoromethyl)benzamide]	1 to 20 µM
O=C(NC1CCNCC1)c1ccc(-c2cc(NCCCN3CCCCC3)c3cnccc3n2)cc1 [4-(4-((3-(piperidin-1-yl)propyl)amino)-1,6-naphthyridin-2-yl)-N-(piperidin-4-yl)benzamide]	≤ 1 µM
O=C(O)c1ccc(-c2cc(NCCCN3CCCCC3)c3cnccc3n2)cc1 [4-(4-((3-(piperidin-1-yl)propyl)amino)-1,6-naphthyridin-2-yl)benzoic acid]	≤ 1 µM
CCN(CC)C(=O)c1ccc(-c2cc(NCCCN3CCCCC3)c3cncc(Br)c3n2)cc1 [4-(8-Bromo-4-((3-(piperidin-1-yl)propyl)amino)-1,6-naphthyridin-2-yl)-N,N-diethylbenzamide]	≥ 20 µM
CN1CCC(NC(=O)c2ccc(-c3cc(NCCCN4CCCCC4)c4cncc(Br)c4n3)cc2)CC1 [4-(8-Bromo-4-((3-(piperidin-1-yl)propyl)amino)-1,6-naphthyridin-2-yl)-N-(1-methylpiperidin-4-yl)benzamide]	≥ 20 µM
Cc1cncc2c(NCCCN3CCCCC3)cc(-c3ccc(C(=O)NC4CCN(C)CC4)cc3)nc12 [4-(8-Methyl-4-((3-(piperidin-1-yl)propyl)amino)-1,6-naphthyridin-2-yl)-N-(1-methylpiperidin-4-yl)benzamide]	≥ 20 µM
Cc1cncc2c(NCCCN3CCCCC3)cc(-c3ccc(C(=O)NCCCN4CCCCC4)cc3)nc12 [4-(8-Methyl-4-((3-(piperidin-1-yl)propyl)amino)-1,6-naphthyridin-2-yl)-N-(3-(piperidin-1-yl)propyl)benzamide]	≥ 20 µM

The next lines start with the values.

IC50	Compound
1 to 20 µM	N#Cc1c(-c2cc(NCCCN3CCCCC3)c3cnccc3n2)ccc2[nH]c(C(=O)NC3CCNCC3)nc12 [4-cyano-5-(4-((3-(piperidin-1-yl)propyl)amino)-1,6-naphthyridin-2-yl)-N-(piperidin-4-yl)-1H-benzo[d]imidazole-2-carboxamide]
≤ 1 µM	O=C(NCCc1ccncc1)c1nc2cc(-c3cc(NCCCN4CCCCC4)c4cnccc4n3)ccc2[nH]1 [5-(4-((3-(piperidin-1-yl)propyl)amino)-1,6-naphthyridin-2-yl)-N-(2-(pyridin-4-yl)ethyl)-1H-benzo[d]imidazole-2-carboxamide]
≤ 1 µM	O=C(NC1CCNCC1)c1nc2cc(-c3cc(NCCCN4CCCCC4)c4cnccc4n3)ccc2[nH]1 [5-(4-((3-(piperidin-1-yl)propyl)amino)-1,6-naphthyridin-2-yl)-N-(piperidin-4-yl)-1H-benzo[d]imidazole-2-carboxamide]
≤ 1 µM	CCNc1cc(-c2ccc3c(c2)cc(C(=O)NC2CCN(C)CC2)n3C)nc2ccncc12 [5-(4-(ethylamino)-1,6-naphthyridin-2-yl)-1-methyl-N-(1-methylpiperidin-4-yl)-1H-indole-2-carboxamide]
1 to 20 µM	CCNc1cc(-c2ccc3[nH]c(C(=O)NCCCN4CCCCC4)nc3c2)nc2ccncc12 [5-(4-(ethylamino)-1,6-naphthyridin-2-yl)-N-(3-(piperidin-1-yl)propyl)-1H-benzo[d]imidazole-2-carboxamide]
1 to 20 µM	CNc1cc(-c2ccc3[nH]c(C(=O)NCCCN4CCCCC4)nc3c2)nc2ccncc12 [5-(4-(methylamino)-1,6-naphthyridin-2-yl)-N-(3-(piperidin-1-yl)propyl)-1H-benzo[d]imidazole-2-carboxamide]
≥ 20 µM	COc1cc(-c2ccc3c(c2)cc(C(=O)NC2CCN(C)CC2)n3C)nc2ccncc12 [5-(4-methoxy-1,6-naphthyridin-2-yl)-1-methyl-N-(1-methylpiperidin-4-yl)-1H-indole-2-carboxamide]
1 to 20 µM	O=C(NC1CCNCC1)c1cc2ccc(-c3cc(NCCCN4CCCCC4)c4cnccc4n3)cc2[nH]1 [6-(4-(3-(Piperidin-1-yl)propylamino)-1,6-naphthyridin-2-yl)-N-(piperidin-4-yl)-1H-indole-2-carboxamide]
≤ 1 µM	O=C(NC1CCNCC1)c1cc2ccc(-c3cc(NCCCN4CCCCC4)c4cnccc4n3)cc2s1 [6-(4-(3-(piperidin-1-yl)propylamino)-1,6-naphthyridin-2-yl)-N-(piperidin-4-yl)benzo[b]thiophene-2-carboxamide]
≤ 1 µM	CN1CCC(Nc2cc(-c3ccc4c(c3)cc(C(=O)N3CCN(C)CC3)n4C)nc3ccncc23)CC1 [(1-Methyl-5-(4-((1-methylpiperidin-4-yl)amino)-1,6-naphthyridin-2-yl)-1H-indol-2-yl)(4-methylpiperazin-1-yl)methanone]
≤ 1 µM	CCN1CCN(C(=O)c2nc3cc(-c4cc(NCCCN5CCCCC5)c5cnccc5n4)ccc3n2CC)CC1 [(1-ethyl-5-(4-((3-(piperidin-1-yl)propyl)amino)-1,6-naphthyridin-2-yl)-1H-benzo[d]imidazol-2-yl)(4-ethylpiperazin-1-yl)methanone]

Reference: patent US11731986B2 (Sanford Burnham Prebys Medical Discovery Institute, priority 2017, dated 2023)
